Consider 24 molecules from PubChem BioAssay AID330 (DTP/NCI, 2004).

“And” between values parts separate entries of the source, which are not always exact repeats. Identical values can stand only once. Inconclusive results and toxic doses are left out. Square brackets hold non-standard residues; d marks the D form. Peptide text beside a SMILES is read from it. * marks the point of attachment. Cbz = O=C(OCc1ccccc1)*; Nva = CCC[CH](N)C(=O)O

The assay has as its system P388 leukemia ip, CD2F1 mice, survival T/C. Nature of the assay: NCI In Vivo Anticancer Drug Screen. Data for tumor model P388 Leukemia (intraperitoneal) in CD2F1 (CDF1) mice. The conditions noted are these: endpoint: median survival time, higher = longer survival. In outline:
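Mice carrying the transplanted tumor received test compound or vehicle. Survival was recorded in each group, and the value is the treated-group measurement divided by that of the vehicle-treated control group.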

The mark [1] stands for this setting: dose: 50.0 mg/kg/injection, schedule: Q01DX009 (ip), vehicle: Klucel (hydroxypropylcellulose) (HPC).
Setting [2] is: dose: 100.0 mg/kg/injection, schedule: Q01DX009 (ip), vehicle: Klucel (hydroxypropylcellulose) (HPC).
[3] abbreviates: dose: 200.0 mg/kg/injection, schedule: Q01DX009 (ip), vehicle: Klucel (hydroxypropylcellulose) (HPC).
The mark [4] stands for this setting: dose: 400.0 mg/kg/injection, schedule: Q01DX009 (ip), vehicle: Klucel (hydroxypropylcellulose) (HPC).
Where [5] appears, read: dose: 60.0 mg/kg/injection, schedule: Q01DX005 (ip), vehicle: saline with Tween-80.
Where [6] appears, read: dose: 120.0 mg/kg/injection, schedule: Q01DX005 (ip), vehicle: saline with Tween-80.
Where [7] appears, read: dose: 50.0 mg/kg/injection, schedule: Q01DX005 (ip), vehicle: Klucel (hydroxypropylcellulose) (HPC).
Setting [8] is: dose: 100.0 mg/kg/injection, schedule: Q01DX005 (ip), vehicle: Klucel (hydroxypropylcellulose) (HPC).
The mark [9] stands for this setting: dose: 50.0 mg/kg/injection, schedule: Q01DX005 (ip), vehicle: saline with Tween-80.
Where [10] appears, read: dose: 50.0 mg/kg/injection, schedule: Q01DX005 (ip), vehicle: saline.
Setting [11] is: dose: 100.0 mg/kg/injection, schedule: Q01DX005 (ip), vehicle: saline with Tween-80.
[12] abbreviates: dose: 200.0 mg/kg/injection, schedule: Q01DX005 (ip), vehicle: saline with Tween-80.
Setting [13] is: dose: 100.0 mg/kg/injection, schedule: Q01DX005 (ip), vehicle: saline.

As to `N#CCCN(C(=O)Nc1ccccc1)c1ccccc1`, the T/C by setting is: under setting [1], 103 % of control; under setting [2], 107 % of control; under setting [3], 107 % of control.

In the case of `N#CCCSc1nnc(N)s1`, the T/C is, setting by setting: under setting [1], 108 % of control; under setting [2], 103 % of control; under setting [3], 104 % of control; under setting [4], 100 % of control.

As to `CC(C)(C)NC(=S)N/N=C/c1cc(Cl)cc(Cl)c1O`, the T/C (dose: 50.0 mg/kg/injection, schedule: Q01DX009 (ip), vehicle: saline with Tween-80) is 97 % of control and the T/C (dose: 200.0 mg/kg/injection, schedule: Q01DX009 (ip), vehicle: saline with Tween-80) is 98 % of control.

In the case of `CC(=O)OC1/C=C\CC/C=C\C1` (centres undefined), the T/C was 99 % of control under setting [5]; 102 % of control under setting [6]; 103 % of control (dose: 240.0 mg/kg/injection, schedule: Q01DX005 (ip), vehicle: saline with Tween-80).

Consider `COc1cc2c(c3c1c(=O)c1cccc(F)c1n3C)C=CC(C)(C)O2`, for which the T/C runs as follows: (dose: 25.0 mg/kg/injection, schedule: Q01DX005 (ip), vehicle: Klucel (hydroxypropylcellulose) (HPC)) 113 % of control; under setting [7], 109 % of control and 110 % of control; under setting [8], 120 % of control.

As for `c1ccc(C2=NNC(c3ccccn3)=C3CCCCCCC3=N2)nc1`, the T/C runs as follows: (dose: 5.3 mg/kg/injection, schedule: Q01DX009 (ip), vehicle: water) 110 % of control; (dose: 8.0 mg/kg/injection, schedule: Q01DX009 (ip), vehicle: water) 112 % of control; (dose: 12.0 mg/kg/injection, schedule: Q01DX009 (ip), vehicle: water) 112 % of control; (dose: 18.0 mg/kg/injection, schedule: Q01DX009 (ip), vehicle: water) 110 % of control; (dose: 25.0 mg/kg/injection, schedule: Q01DX009 (ip), vehicle: water) 111 % of control; (dose: 50.0 mg/kg/injection, schedule: Q01DX009 (ip), vehicle: water) 117 % of control.

Turning to `Cn1ncc2c(N)cc(=O)[nH]c21`, the T/C by setting is: (dose: 100.0 mg/kg/injection, schedule: Q01DX001 (ip), vehicle: saline with Tween-80) 101 % of control; (dose: 200.0 mg/kg/injection, schedule: Q01DX001 (ip), vehicle: saline with Tween-80) 94 % of control; (dose: 400.0 mg/kg/injection, schedule: Q01DX001 (ip), vehicle: saline with Tween-80) 104 % of control.

For `C=CC(=NC(C)C)Nc1ccccc1`, the T/C by setting is: (dose: 1.56 mg/kg/injection, schedule: Q01DX009 (ip), vehicle: saline) 112 % of control; (dose: 3.12 mg/kg/injection, schedule: Q01DX009 (ip), vehicle: saline) 105 % of control; (dose: 6.25 mg/kg/injection, schedule: Q01DX009 (ip), vehicle: saline) 104 % of control and 113 % of control.

With `CCN(CC)c1cc2oc3cc(N)cc(=N)c-3nc2cc1C`, the T/C runs as follows: (dose: 12.5 mg/kg/injection, schedule: Q01DX005 (ip), vehicle: saline) 102 % of control; (dose: 25.0 mg/kg/injection, schedule: Q01DX005 (ip), vehicle: saline) 98 % of control; under setting [9], 112 % of control; under setting [10], 96 % of control; under setting [11], 107 % of control; under setting [12], 102 % of control.

For the molecule `CC1CCCC(C)N1NC(=O)C(C)(C)C` (centres undefined), the T/C under setting [10] was 99 % of control; the T/C under setting [13] was 115 % of control; the T/C (dose: 200.0 mg/kg/injection, schedule: Q01DX005 (ip), vehicle: saline) is 101 % of control.

Turning to `CS1(=O)=NC(=N)c2ccccc21` (centres undefined), the T/C reads like this: (dose: 50.0 mg/kg/injection, schedule: Q01DX009 (ip), vehicle: saline) 102 % of control; (dose: 100.0 mg/kg/injection, schedule: Q01DX009 (ip), vehicle: saline) 107 % of control.

`N#[N+]c1c(C(=O)O)[nH]c(=O)[nH]c1=O`: the T/C runs as follows: (dose: 16.0 mg/kg/injection, schedule: Q01DX009 (ip), vehicle: saline sonified) 109 % of control; (dose: 32.0 mg/kg/injection, schedule: Q01DX009 (ip), vehicle: saline sonified) 104 % of control; (dose: 64.0 mg/kg/injection, schedule: Q01DX009 (ip), vehicle: saline sonified) 100 % of control; (dose: 125.0 mg/kg/injection, schedule: Q01DX009 (ip), vehicle: saline sonified) 104 % of control; (dose: 250.0 mg/kg/injection, schedule: Q01DX009 (ip), vehicle: saline sonified) 109 % of control; (dose: 500.0 mg/kg/injection, schedule: Q01DX009 (ip), vehicle: saline sonified) 104 % of control.

In the case of `CCOC(=O)CCOc1ccccc1N(CCCl)CCCl`, the T/C by setting is: (dose: 3.13 mg/kg/injection, schedule: Q04DX003 (ip), vehicle: saline with Tween-80) 150 % of control; (dose: 6.25 mg/kg/injection, schedule: Q04DX003 (ip), vehicle: saline with Tween-80) 163 % of control.

As for `CCc1cc(Cc2cc(CC)cc(C(C)(C)C)c2O)c(O)c(C(C)(C)C)c1`, the T/C was 107 % of control under setting [2]; 90 % of control under setting [3]; 104 % of control and 90 % of control under setting [4].

Turning to `N#Cc1c(-c2ccccc2)c(-c2ccccc2)n[nH]c1=O`, the T/C runs as follows: (dose: 25.0 mg/kg/injection, schedule: Q04DX002 (ip), vehicle: distilled water + Tween-80) 99 % of control; (dose: 50.0 mg/kg/injection, schedule: Q04DX002 (ip), vehicle: distilled water + Tween-80) 100 % of control; (dose: 100.0 mg/kg/injection, schedule: Q01DX001 (ip), vehicle: saline) 100 % of control; (dose: 100.0 mg/kg/injection, schedule: Q04DX002 (ip), vehicle: distilled water + Tween-80) 98 % of control; (dose: 200.0 mg/kg/injection, schedule: Q01DX001 (ip), vehicle: saline) 96 % of control; (dose: 200.0 mg/kg/injection, schedule: Q04DX002 (ip), vehicle: distilled water + Tween-80) 98 % of control. Further, for the setting “dose: 400.0 mg/kg/injection, schedule: Q01DX001 (ip), vehicle: saline”, the T/C was 100 % of control.

As to `CCCC(NC(=O)OCc1ccccc1)C(=O)NC(C(=O)O)C(C)CC` (centres undefined) (Cbz-[Nva]-Ile-OH; configuration not given here), the T/C was 100 % of control under setting [7]; 100 % of control under setting [8]; 101 % of control (dose: 200.0 mg/kg/injection, schedule: Q01DX005 (ip), vehicle: Klucel (hydroxypropylcellulose) (HPC)).

With `CN(C)CC/C=C1/c2ccccc2Sc2ccc(Cl)cc21`, the T/C reads like this: (dose: 6.25 mg/kg/injection, schedule: Q01DX005 (ip), vehicle: saline with Tween-80) 104 % of control; (dose: 12.5 mg/kg/injection, schedule: Q01DX005 (ip), vehicle: saline with Tween-80) 111 % of control.

In the case of `COc1ccc(-c2nc(SCC(=O)O)n(-c3ccccn3)c2-c2ccc(OC)cc2)cc1`, the T/C (dose: 100.0 mg/kg/injection, schedule: Q01DX001 (ip), vehicle: water) was 100 % of control and the T/C (dose: 200.0 mg/kg/injection, schedule: Q01DX001 (ip), vehicle: water) was 91 % of control.

On to `O=C(CCC(=O)ON1C(=O)CCC1=O)OCCOC(=O)CCC(=O)ON1C(=O)CCC1=O`, for which the T/C was 116 % of control under setting [9], 114 % of control under setting [11] and 98 % of control under setting [12].

For `COC1OC2COC(c3ccccc3)OC2C(N)C1O` (centres undefined), the T/C was 106 % of control under setting [9], 101 % of control under setting [11] and 104 % of control under setting [12].

Consider `CCN(CC)CCCC(C)Nc1nc(-c2ccc(OC)cc2)nc2cc(Cl)ccc12` (centres undefined), for which the T/C is 102 % of control under setting [10] and 93 % of control under setting [13].

For the molecule `CCOC(=O)N1C=CC2(C=C1)CCCC2`, the T/C runs as follows: (dose: 50.0 mg/kg/injection, schedule: Q01DX001 (ip), vehicle: Klucel (hydroxypropylcellulose) (HPC)) 108 % of control; (dose: 100.0 mg/kg/injection, schedule: Q01DX001 (ip), vehicle: Klucel (hydroxypropylcellulose) (HPC)) 102 % of control; (dose: 200.0 mg/kg/injection, schedule: Q01DX001 (ip), vehicle: Klucel (hydroxypropylcellulose) (HPC)) 102 % of control.

For `Cc1cccc(/C(=C/c2ccc([N+](=O)[O-])cc2)C(=O)Nc2ccc(S(=O)(=O)F)cc2)c1`, the T/C is 93 % of control under setting [5] and 98 % of control under setting [6].

Turning to `C#CCOc1ccc(Cl)cc1[N+](=O)[O-]`, the T/C under setting [1] was 100 % of control, the T/C under setting [2] was 99 % of control and the T/C under setting [3] was 104 % of control.
